The subject of the first test is T cell blast formation in human blood. Briefly: In vitro inhibition of T cell blast formation in human blood (human whole blood blast formation, PHA stimulated, flow cytometry). The settings on record: Test Dose 1 × 10^−5 (unit not given), 72 hours, mean where multiple measurements. In kind it is cell-based. How it is done: Cells are collected after a 72 hours culture period at 37° C., supernatant is removed by centrifugation and red blood cells are lysed by a hypotonic buffer. The remaining white blood cells are collected in PBS containing propidium iodide. The blast formation is analyzed using a benchtop flow cytometer (Cytoron, Ortho) equipped with an argon-ion laser. […] When multiple measurements were performed, a mean value was calculated for the percentage inhibition of T cell blast formation.
(In general: In flow cytometry, cells or beads pass a laser one at a time.)
As to `O=C(Nc1ccc(Oc2ccccc2)cc1)C1CC(c2cccnc2)=NO1` (stereo not drawn) [Compound 36], the “% Inhibition of T cell blast formation” value is recorded as 85%.

Staying with this test, now noted: Test Dose 1 × 10^−6 (unit not given), 72 hours, mean where multiple measurements.
Take `C#CC(O)(c1ccccc1)c1ccc(NC(=O)C2CC(c3cccnc3)=NO2)cc1` (racemic) [Compound 69, [B(R)]±[B(S)]-4,5-dihydro-N-[4-(1-hydroxy-1-phenyl-2-propynyl)phenyl]-3-(3-pyridinyl)-5-isoxazolecarboxamide]: the “% Inhibition of T cell blast formation” value was 73%. Regarding `C=CCOc1ccccc1/C=C/C(=O)c1ccc(NC(=O)C2CC(c3cccnc3)=NO2)cc1` (racemic) [Compound 470], the “% Inhibition of T cell blast formation” value is given as 87%. Turning to `COc1ccc(/C=C/C(=O)c2ccc(NC(=O)C3CC(c4cccnc4)=NO3)cc2)c(C)c1C` (racemic) [Compound 479], the “% Inhibition of T cell blast formation” value is listed as 85%.

`O=C(Nc1ccc(C(O)(c2ccccc2)c2ccccn2)cc1)C1CC(c2cccnc2)=NO1` (single isomer, unassigned) [Compound 68]: the “% Inhibition of T cell blast formation” value amounted to 61%.

For the molecule `O=C(c1ccc(NC(=O)C2CC(c3cccnc3)=NO2)cc1)c1ccccn1` (single isomer, unassigned) [Compound 394], the “% Inhibition of T cell blast formation” value stood at 84%. On the same count and under the same terms, then `O=C(Nc1ccc(C(=NO)c2ccccc2)cc1)C1CC(c2cccnc2)=NO1` (single isomer, unassigned) [Compound 420], with 39%; and `O=C(Nc1ccc(C(O)c2ccccn2)cc1)C1CC(c2cccnc2)=NO1` (single isomer, unassigned) [Compound 525], with 74%. Still for that read-out and setting: then `COc1cccc(C(=O)c2ccc(NC(=O)C3CC(c4cccnc4)=NO3)cc2)c1` (stereo not drawn) [Compound 9], with 71%. Take `Cc1cccc(C(=O)c2ccc(NC(=O)C3CC(c4cccnc4)=NO3)cc2)c1` (stereo not drawn) [Compound 10]: the “% Inhibition of T cell blast formation” value came to 75%. Still for that read-out and setting: under `O=C(c1ccc(NC(=O)C2CC(c3cccnc3)=NO2)cc1)c1cccc(F)c1` (stereo not drawn) [Compound 12] stands 83%; under `O=C(c1ccc(F)cc1)c1ccc(NC(=O)C2CC(c3cccnc3)=NO2)cc1` (stereo not drawn) [Compound 13], 78%. On the same count and under the same terms, under `O=C(c1ccc(NC(=O)C2CC(c3cccnc3)=NO2)cc1)c1ccccc1Cl` (stereo not drawn) [Compound 14] stands 78%; under `CC(C#N)(c1ccc(F)cc1)c1ccc(NC(=O)C2CC(c3cccnc3)=NO2)cc1F` (stereo not drawn) [Compound 39], 67%.

With `CC(C#N)(c1ccccc1)c1ccc(NC(=O)C2CC(c3cccnc3)=NO2)cc1` (stereo not drawn) [Compound 45], the “% Inhibition of T cell blast formation” value is 78%. For `COC(c1ccccc1)c1ccc(NC(=O)C2CC(c3cccnc3)=NO2)cc1.Cl` (stereo not drawn) [Compound 52], the “% Inhibition of T cell blast formation” value is listed as 89%. On the same count and under the same terms, under `Nc1nc(-c2ccccc2)c(C(c2ccccc2)c2ccc(NC(=O)C3CC(c4cccnc4)=NO3)cc2)s1` (stereo not drawn) [Compound 53] stands 39%; under `O=C(Nc1ccc(C(NC2CC2)c2ccccc2)cc1)C1CC(c2cccnc2)=NO1` (stereo not drawn) [Compound 90], 33%; under `Cn1ncc2ccc(CNC(c3ccccc3)c3ccc(NC(=O)C4CC(c5cccnc5)=NO4)cc3)cc21` (stereo not drawn) [Compound 94], 44%. For the molecule `O=C(Nc1ccc(C(Nc2ccc3[nH]nnc3c2)c2ccccc2)cc1)C1CC(c2cccnc2)=NO1` (stereo not drawn) [Compound 96], the “% Inhibition of T cell blast formation” value came to 39%. Consider `O=C(Nc1ccc(C(NCc2ccncc2)c2ccccc2)cc1)C1CC(c2cccnc2)=NO1` (stereo not drawn) [Compound 97], for which the “% Inhibition of T cell blast formation” value is recorded as 58%.

As for `O=C(Nc1ccc(C(Nc2ccccn2)c2ccccc2)cc1)C1CC(c2cccnc2)=NO1` (stereo not drawn) [Compound 99], the “% Inhibition of T cell blast formation” value amounted to 83%. On the same count and under the same terms, under `CC(C)NC(c1ccccc1)c1ccc(NC(=O)C2CC(c3cccnc3)=NO2)cc1` (stereo not drawn) [Compound 100] stands 35%; under `Cn1cnc2cc(NC(c3ccccc3)c3ccc(NC(=O)C4CC(c5cccnc5)=NO4)cc3)ccc21` (stereo not drawn) [Compound 101], 70%; under `CN1CCC(NC(c2ccccc2)c2ccc(NC(=O)C3CC(c4cccnc4)=NO3)cc2)CC1` (stereo not drawn) [Compound 102], 66%. On to `CN1CCC(CNC(c2ccccc2)c2ccc(NC(=O)C3CC(c4cccnc4)=NO3)cc2)CC1` (stereo not drawn) [Compound 103], for which the “% Inhibition of T cell blast formation” value was determined as 82%.

For the molecule `O=C(Nc1ccc(C(NC2CCN(Cc3ccccc3)CC2)c2ccccc2)cc1)C1CC(c2cccnc2)=NO1` (stereo not drawn) [Compound 104], the “% Inhibition of T cell blast formation” value is given as 60%. The same measure, in the same setting: then `COc1cc(S(N)(=O)=O)ccc1NC(c1ccccc1)c1ccc(NC(=O)C2CC(c3cccnc3)=NO2)cc1` (stereo not drawn) [Compound 119], with 54%.

The test is the same for the next values; noted with them: Test Dose 1 × 10^−7 (unit not given), 72 hours, mean where multiple measurements.
In the case of `O=C(Nc1ccc(C(=NO)c2ccccc2)cc1)C1CC(c2cccnc2)=NO1` (single isomer, unassigned) [Compound 419], the “% Inhibition of T cell blast formation” value came to 86%. Still for that read-out and setting: then `O=C(c1ccc(NC(=O)C2CC(c3cccnc3)=NO2)cc1)c1ccccn1` (single isomer, unassigned) [Compound 489], with 80%.

The test is the same for the next values; noted with them: Test Dose 3 × 10^−7 (unit not given), 72 hours, mean where multiple measurements.
Consider `N#CC(OC(N)=O)(c1ccccc1)c1ccc(NC(=O)C2CC(c3cccnc3)=NO2)cc1` (racemic) [Compound 75, (±)-[cyano[4-[[[4,5-dihydro-3-(3-pyridinyl)-5-isoxazolyl]carbonyl]amino]phenyl]phenylmethyl]carbamate], for which the “% Inhibition of T cell blast formation” value was 67%. `O=C(/C=C/c1c(F)cccc1F)c1ccc(NC(=O)C2CC(c3cccnc3)=NO2)cc1` (racemic) [Compound 468]: the “% Inhibition of T cell blast formation” value amounted to 61%. Take `O=C(/C=C/c1ccc2c(c1)OCO2)c1ccc(NC(=O)C2CC(c3cccnc3)=NO2)cc1` (racemic) [Compound 469]: the “% Inhibition of T cell blast formation” value stood at 65%. Still for that read-out and setting: under `O=C(/C=C/c1ccccc1C(F)(F)F)c1ccc(NC(=O)C2CC(c3cccnc3)=NO2)cc1` (racemic) [Compound 471] stands 54%; under `O=C(/C=C/c1ccccc1F)c1ccc(NC(=O)C2CC(c3cccnc3)=NO2)cc1` (racemic) [Compound 473], 72%; under `Cc1ccccc1/C=C/C(=O)c1ccc(NC(=O)C2CC(c3cccnc3)=NO2)cc1` (racemic) [Compound 475], 56%.

As to `O=C(/C=C/c1c(F)cccc1Cl)c1ccc(NC(=O)C2CC(c3cccnc3)=NO2)cc1` (racemic) [Compound 476], the “% Inhibition of T cell blast formation” value stood at 67%. On to `COc1ccccc1/C=C/C(=O)c1ccc(NC(=O)C2CC(c3cccnc3)=NO2)cc1` (racemic) [Compound 477], for which the “% Inhibition of T cell blast formation” value was determined as 63%. Same read-out and setting: then `O=C(/C=C/c1ccccc1)c1ccc(NC(=O)C2CC(c3cccnc3)=NO2)cc1` (racemic) [Compound 478], with 70%. `Nc1ccc(C(=O)c2ccc(NC(=O)C3CC(c4cccnc4)=NO3)cc2)cc1` (stereo not drawn) [Compound 17]: the “% Inhibition of T cell blast formation” value is 53%.

For `O=C(Nc1ccc(C(O)(Cc2cccnc2)c2ccccc2)cc1)C1CC(c2cccnc2)=NO1` (stereo not drawn) [Compound 73], the “% Inhibition of T cell blast formation” value is listed as 67%. Still for that read-out and setting: then `O=C(Nc1ccc(C(Nc2ccccc2)c2ccccc2)cc1)C1CC(c2cccnc2)=NO1` (stereo not drawn) [Compound 113], with 37%.

The values above are taken from patent US7414048B2, “4,5-dihydro-isoxazole derivatives and their pharmaceutical use” (Janssen Pharmaceutica, N.V., priority 1998, dated 2008).
